The values below come from US5021236A, “Method of enhancing NMR imaging using chelated paramagnetic ions bound to biomolecules” (Schering Aktiengesellschaft, priority 1981, dated 1991).

A short description of one data set: aqueous solubility. In kind it is physicochemical. As to conditions: in water.
A short description of data set [1]: NMR detection of a defective blood-brain barrier in the region of a cranial abscess. In kind it is in vivo. As to conditions: NMR diagnosis; complex in the form of salts with good aqueous solubility; preferably 0.1-0.5 mmole/kg. An excerpt:
In contrast to conventional X-ray diagnosis with radiopaque X-ray contrast media, in NMR diagnosis with paramagnetic contrast medium there is no linear dependence of the signal enhancement on the concentration used. […] For this reason, it was surprising that some pathological processes can be seen only after application of a strongly paramagnetic contrast medium, according to the invention, higher than the doses indicated in EP No. 71564 (which can be from 0.001 mmole/kg to 5 mmole/kg). […] For a dose greater than 0.1 mmole/kg, solutions of high concentrations up to 1 mole/l, preferably 0.25 to 0.75 mole/l, are necessary, since only in this way is the volume load reduced and handling of the injection solution assured.

As to `O=C([O-])CCCCCCCCCCNC(=O)CN(CCN(CCN(CC(=O)[O-])CC(=O)NCCCCCCCCCCC(=O)[O-])CC(=O)[O-])CC(=O)[O-].[Gd+3].[Na+].[Na+]` [Example 2, disodium salt of gadolinium(III) complex of 13,23-dioxo-15,18,21-tris(carboxymethyl)-12,15,18,21,24-pentaazapentatriacontanedioic acid], the aqueous solubility entry in the data set “aqueous solubility” is “good aqueous solubility”.
Consider `O=C([O-])CN(CCN(CC(=O)[O-])CC(=O)NCCCCCCCCCCC(=O)O)CCN(CC(=O)[O-])CC(=O)NCCCCCCCCCCC(=O)O.[Gd+3]` [Gadolinium(III) complex of 13,23-dioxo-15,18,21-tris(carboxymethyl)-12,15,18,21,24-pentaazapentatriacontanedioic acid], for which the aqueous solubility entry in the data set “aqueous solubility” is listed as “insoluble in water”.
As to `O=C([O-])CN(CCN(CC(=O)[O-])CC(=O)O)CCN(CC(=O)[O-])CC(=O)O.[Gd+3]` [gadolinium diethylenetriaminepentaacetic acid], in data set [1], the “dose at which a defective blood-brain barrier can be detected” value was 0.05 to 2.5 mmol/kg.
Take `O=C(O)CN(CC(=O)O)C1CCCCC1N(CC(=O)O)CC(=O)O.[Mn]` (stereo not shown) [manganese-1,2-cyclohexenediaminetetraacetic acid]: the “dose at which a defective blood-brain barrier can be detected” value in data set [1] is 0.05 to 2.5 mmol/kg.
